Patent US7138361B2, “Herbicidal heterocycles” (E. I. du Pont de Nemours and Company, priority 2000, dated 2006)

Legend:
Test in all cases: Test C preemergence
Format in all cases: in vivo
Nightshade = system: Nightshade
From the text: (§1) Seeds of plant species selected from bermudagrass (Cynodon dactylon), Surinam grass (Brachiaria decumbens), cocklebur (Xanthium strumarium), corn (Zea mays), crabgrass (Digitaria sanguinalis), woolly cupgrass (Eriochloa villosa), giant foxtail (Setaria faberii), goosegrass (Eleusine indica), johnsongrass (Sorghum halepense), kochia (Kochia scoparia), lambsquarters (Chenopodium album), morningglory (Ipomoea hederacea), yellow nutsedge (Cyperus esculentus), pigweed (Amaranthus retroflexus), common ragweed (Ambrosia elatior), soybean (Glycine max) and velvetleaf (Abutilon theophrasti) were planted and treated preemergence with test chemicals formulated in a non-phytotoxic solvent mixture which included a surfactant.
(§2) At the same time, plants selected from these crop and weed species and also winter barley (Hordeum vulgare), blackgrass (Alopecurus myosuroides), canary grass (Phalaris minor), chickweed (Stellaria media), downy brome (Bromus tectorum), green foxtail (Setaria viridis), Italian ryegrass (Lolium multiflorum), wheat (Triticum aestivum), wild oat (Avena fatua) and windgrass (Apera spica-venti) were treated with postemergence applications of some of the test chemicals formulated in the same manner. Plants ranged in height from 2 to 18 cm (1- to 4-leaf stage) for postemergence treatments. Plant species in the flooded paddy test consisted of rice (Oryza saliva), smallflower flatsedge (Cyperus difformis), duck salad (Heteranthera limosa) and barnyardgrass (Echinochloa crus-galli) grown to the 2-leaf stage for testing. Treated plants and controls were maintained in a greenhouse for 12 to 14 days, after which time all species were compared to controls and visually evaluated. Plant response ratings, summarized in Table C, are based on a scale of 0 to 100 where 0 is no effect and 100 is complete control. A dash (-) response means no test result.

Sunflower = conditions: Rate 125 g/ha; scale 0 to 100, 0 no effect, 100 complete control
From the text: as §1, §2

[1] = system: Surinam grass (Brachiaria decumbens)
From the text: as §1, §2

[2] = system: bermudagrass (Cynodon dactylon)
From the text: as §1, §2

[3] = system: cocklebur (Xanthium strumarium)
From the text: as §1, §2

[4] = system: common ragweed (Ambrosia elatior)
From the text: as §1, §2

corn (Zea mays) = system: corn (Zea mays)
From the text: as §1, §2

[5] = system: crabgrass (Digitaria sanguinalis)
From the text: as §1, §2

[6] = system: giant foxtail (Setaria faberii)
From the text: as §1, §2

[7] = system: goosegrass (Eleusine indica)
From the text: as §1, §2

[8] = system: johnsongrass (Sorghum halepense)
From the text: as §1, §2

kochia (Kochia scoparia) = system: kochia (Kochia scoparia)
From the text: as §1, §2

[9] = system: lambsquarters (Chenopodium album)
From the text: as §1, §2

[10] = system: morningglory (Ipomoea hederacea)
From the text: as §1, §2

[11] = system: pigweed (Amaranthus retroflexus)
From the text: as §1, §2

soybean (Glycine max) = system: soybean (Glycine max)
From the text: as §1, §2

[12] = system: velvetleaf (Abutilon theophrasti)
From the text: as §1, §2

[13] = system: woolly cupgrass (Eriochloa villosa)
From the text: as §1, §2

[14] = system: yellow nutsedge (Cyperus esculentus)
From the text: as §1, §2

[15] = Rate 125 g/ha, scale 0 to 100, 0 no effect, 100 complete control
[16] = Rate 250 g/ha, scale 0 to 100, 0 no effect, 100 complete control
[17] = preemergence, Rate 31 g/ha, scale 0 to 100
[18] = preemergence, Rate 62 g/ha, scale 0 to 100
[19] = preemergence, Rate 250 g/ha, scale 0 to 100, 0 no effect, 100 complete control

Cc1ccc(N2CCC(n3ccc(C(C)(C)C)n3)C2=O)cc1OCCCl (centres unmarked) [Compound 109]
70: Plant response rating, Pigweed [11, 15]
80: Plant response rating, Surinam grass [1, 15] | Plant response rating, Pigweed [11, 19] | Plant response rating, Soybean (soybean (Glycine max); [18])
20: Plant response rating, Foxtail, Giant [6, 15] | Plant response rating, Pigweed [11, 17] | Plant response rating, Pigweed [11, 18] | Plant response rating, Soybean (soybean (Glycine max); [17])
0: Plant response rating, Surinam grass [1, 17] | Plant response rating, Surinam grass [1, 18] | Plant response rating, Cocklebur [3, 17] | Plant response rating, Cocklebur [3, 18] | Plant response rating, Corn (corn (Zea mays); [15]) | Plant response rating, Corn (corn (Zea mays); [17]) | Plant response rating, Corn (corn (Zea mays); [18]) | Plant response rating, Corn (corn (Zea mays); [19]) | Plant response rating, Foxtail, Giant [6, 17] | Plant response rating, Foxtail, Giant [6, 18] | Plant response rating, Johnsongrass [8, 17] | Plant response rating, Nutsedge [14, 15] | Plant response rating, Nutsedge [14, 17] | Plant response rating, Nutsedge [14, 18] | Plant response rating, Nutsedge [14, 19]
30: Plant response rating, Cocklebur [3, 15] | Plant response rating, Cocklebur [3, 19] | Plant response rating, Morningglory [10, 17]
90: Plant response rating, Nightshade (Nightshade; Rate 62 g/ha, scale 0 to 100) | Plant response rating, Sunflower (Sunflower) | Plant response rating, Surinam grass [1, 19] | Plant response rating, Ragweed, Common [4, 18] | Plant response rating, Foxtail, Giant [6, 19] | Plant response rating, Goosegrass [7, 17] | Plant response rating, Kochia (kochia (Kochia scoparia); [17]) | Plant response rating, Morningglory [10, 18] | Plant response rating, Soybean (soybean (Glycine max); [15]) | Plant response rating, Soybean (soybean (Glycine max); [19]) | Plant response rating, Cupgrass, Woolly [13, 15] | Plant response rating, Cupgrass, Woolly [13, 18]
10: Plant response rating, Ragweed, Common [4, 17] | Plant response rating, Johnsongrass [8, 18] | Plant response rating, Cupgrass, Woolly [13, 17]
50: Plant response rating, Nightshade (Nightshade; Rate 31 g/ha, scale 0 to 100) | Plant response rating, Johnsongrass [8, 15] | Plant response rating, Johnsongrass [8, 19] | Plant response rating, Velvetleaf [12, 17]
100: Plant response rating, Nightshade (Nightshade; [15]) | Plant response rating, Nightshade (Nightshade; [16]) | Plant response rating, Bermudagrass [2, 15] | Plant response rating, Bermudagrass [2, 17] | Plant response rating, Bermudagrass [2, 18] | Plant response rating, Bermudagrass [2, 19] | Plant response rating, Ragweed, Common [4, 15] | Plant response rating, Ragweed, Common [4, 19] | Plant response rating, Crabgrass [5, 15] | Plant response rating, Crabgrass [5, 17] | Plant response rating, Crabgrass [5, 18] | Plant response rating, Crabgrass [5, 19] | Plant response rating, Goosegrass [7, 15] | Plant response rating, Goosegrass [7, 18] | Plant response rating, Goosegrass [7, 19] | Plant response rating, Kochia (kochia (Kochia scoparia); [15]) | Plant response rating, Kochia (kochia (Kochia scoparia); [18]) | Plant response rating, Kochia (kochia (Kochia scoparia); [19]) | Plant response rating, Lambsquarters [9, 15] | Plant response rating, Lambsquarters [9, 17] | Plant response rating, Lambsquarters [9, 18] | Plant response rating, Lambsquarters [9, 19] | Plant response rating, Morningglory [10, 15] | Plant response rating, Morningglory [10, 19] | Plant response rating, Velvetleaf [12, 15] | Plant response rating, Velvetleaf [12, 18] | Plant response rating, Velvetleaf [12, 19] | Plant response rating, Cupgrass, Woolly [13, 19]

CC(C)OC(=O)c1cccc(N2CCC(n3ccc(C(C)(C)C)n3)C2=O)c1 (centres unmarked) [Compound 124]
45: Plant response rating, Lambsquarters [9, 17]
90: Plant response rating, Crabgrass [5, 18] | Plant response rating, Kochia (kochia (Kochia scoparia); [19])
20: Plant response rating, Nightshade (Nightshade; [15]) | Plant response rating, Foxtail, Giant [6, 15] | Plant response rating, Johnsongrass [8, 15]
100: Plant response rating, Nightshade (Nightshade; [16]) | Plant response rating, Bermudagrass [2, 19] | Plant response rating, Crabgrass [5, 15] | Plant response rating, Crabgrass [5, 19] | Plant response rating, Lambsquarters [9, 15] | Plant response rating, Lambsquarters [9, 19]
50: Plant response rating, Lambsquarters [9, 18] | Plant response rating, Pigweed [11, 19] | Plant response rating, Cupgrass, Woolly [13, 15]
80: Plant response rating, Bermudagrass [2, 15] | Plant response rating, Crabgrass [5, 17]
10: Plant response rating, Surinam grass [1, 19]
85: Plant response rating, Foxtail, Giant [6, 19]
0: Plant response rating, Nightshade (Nightshade; Rate 31 g/ha, scale 0 to 100) | Plant response rating, Nightshade (Nightshade; Rate 62 g/ha, scale 0 to 100) | Plant response rating, Sunflower (Sunflower) | Plant response rating, Surinam grass [1, 15] | Plant response rating, Surinam grass [1, 17] | Plant response rating, Surinam grass [1, 18] | Plant response rating, Bermudagrass [2, 17] | Plant response rating, Cocklebur [3, 15] | Plant response rating, Cocklebur [3, 17] | Plant response rating, Cocklebur [3, 18] | Plant response rating, Cocklebur [3, 19] | Plant response rating, Ragweed, Common [4, 15] | Plant response rating, Ragweed, Common [4, 17] | Plant response rating, Ragweed, Common [4, 18] | Plant response rating, Ragweed, Common [4, 19] | Plant response rating, Corn (corn (Zea mays); [15]) | Plant response rating, Corn (corn (Zea mays); [17]) | Plant response rating, Corn (corn (Zea mays); [18]) | Plant response rating, Corn (corn (Zea mays); [19]) | Plant response rating, Foxtail, Giant [6, 17] | Plant response rating, Foxtail, Giant [6, 18] | Plant response rating, Goosegrass [7, 17] | Plant response rating, Goosegrass [7, 18] | Plant response rating, Johnsongrass [8, 17] | Plant response rating, Kochia (kochia (Kochia scoparia); [17]) | Plant response rating, Morningglory [10, 15] | Plant response rating, Morningglory [10, 17] | Plant response rating, Morningglory [10, 18] | Plant response rating, Morningglory [10, 19] | Plant response rating, Pigweed [11, 15] | Plant response rating, Pigweed [11, 17] | Plant response rating, Pigweed [11, 18] | Plant response rating, Soybean (soybean (Glycine max); [15]) | Plant response rating, Soybean (soybean (Glycine max); [17]) | Plant response rating, Soybean (soybean (Glycine max); [18]) | Plant response rating, Soybean (soybean (Glycine max); [19]) | Plant response rating, Velvetleaf [12, 15] | Plant response rating, Velvetleaf [12, 17] | Plant response rating, Velvetleaf [12, 18] | Plant response rating, Velvetleaf [12, 19] | Plant response rating, Cupgrass, Woolly [13, 17] | Plant response rating, Nutsedge [14, 15] | Plant response rating, Nutsedge [14, 17] | Plant response rating, Nutsedge [14, 18] | Plant response rating, Nutsedge [14, 19]
60: Plant response rating, Bermudagrass [2, 18] | Plant response rating, Goosegrass [7, 19] | Plant response rating, Kochia (kochia (Kochia scoparia); [15]) | Plant response rating, Cupgrass, Woolly [13, 19]
15: Plant response rating, Johnsongrass [8, 18]
30: Plant response rating, Johnsongrass [8, 19] | Plant response rating, Cupgrass, Woolly [13, 18]
40: Plant response rating, Goosegrass [7, 15] | Plant response rating, Kochia (kochia (Kochia scoparia); [18])
